Values of other authors in patent US7807830B2, “Manufacture of pure hydralazine salts” (Navinta LLC, priority 2005, dated 2010).
Counter-ions that a name gives are not always drawn. Like-named read-outs stand apart in the source and are kept apart here.

In the case of `NNc1nncc2ccccc12` [Hydralazine hydrochloride, 1-hydrazinophthalazine], the onset of action (given intravenously) is listed as 10 to 20 min, the duration of action (in vivo) is listed as 3 to 4 h and the “maximum hypotensive effect in” value (in vivo) is listed as 10 to 80 min. For the same compound, the onset of action (oral administration) was 10 to 30 min.
